Source: PMC8298097 (eLife, 2021)
Blank lines part the entries; values can stand above or below the substance they belong to.

Key:
GIPR = conditions: maximum response compared with human GIP; ref Sparre-Ulrich et al., 2016; Bailey, 2020; cited from earlier work
Description: Species differences in class B1 receptor responsiveness are diversified and receptor specific, which is tolerable for some receptors such as GLP-1R and GCGR, but leads to concerns for others like GIPR and parathyroid hormone receptor-2 (PTH2R) ([Sparre-Ulrich et al., 2016]; [Hoare et al., 1999]). […] Such a divergence is not caused by changes in peptide potency, but r ...

GCGR = conditions: cognate receptor, ref Yuliantie et al., 2020, Darbalaei et al.; cited from earlier work
[1] = biological target: T1, human GIPR Y68A, HA-Flag-3GSA-GIPR(22-466) (human) (UniProt P48546)
T1 sequence: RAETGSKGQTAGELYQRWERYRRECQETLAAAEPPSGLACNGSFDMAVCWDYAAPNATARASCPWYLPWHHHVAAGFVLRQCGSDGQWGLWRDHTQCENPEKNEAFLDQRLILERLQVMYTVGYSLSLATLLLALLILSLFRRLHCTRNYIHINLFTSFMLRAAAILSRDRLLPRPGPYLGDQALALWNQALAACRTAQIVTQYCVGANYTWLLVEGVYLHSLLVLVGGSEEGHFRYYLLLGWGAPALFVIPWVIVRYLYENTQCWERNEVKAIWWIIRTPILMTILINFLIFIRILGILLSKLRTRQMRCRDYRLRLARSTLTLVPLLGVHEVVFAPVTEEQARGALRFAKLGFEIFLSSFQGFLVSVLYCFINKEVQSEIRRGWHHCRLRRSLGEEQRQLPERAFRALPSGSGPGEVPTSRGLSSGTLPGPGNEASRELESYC

Substance: Human (Pro3)GIP: full agonist with identical maximum response as human GIP (YAPGTFISDYSIAMDKIHQQDFVNWLLAQKGKKNDWKHNITQ; Gastric inhibitory polypeptide; UniProt P09681 52-93, looked up, variant E3P)
agonism (GIPR): full agonist with identical maximum response as human GIP

Substance: glucagon
pIC50 (GCGR): 7.31

GIP(1-42)-stimulated cAMP accumulation in HEK 293T cells, pEC50 [1]: 6.79
Substance: glucose-dependent insulinotropic polypeptide GIP(1-42) (from UniProt P09681 52-93)
